Assay results as given in US12370235B2, “Synthetic, non-natural antimicrobial peptides inspired by Staphylococcus auricularis delta toxin” (University of Saskatchewan, priority 2021, dated 2025).
Ends that are not written are not given here.

Legend:
[1] = Circular dichroism spectroscopy; format: physicochemical; conditions: CD, 50% (v/v) TFE
Text: The δ-toxins and the PSMs are characterized as α-helical peptides that form amyloid fibers^48. Although the propensity of individual peptides to form amyloids is correlated to their cytotoxicity^49, the amyloid form is not directly implicated in cell membrane disruption^50. […] CD spectroscopy was used to investigate the secondary structure of a subset of peptides within the collection (FIG. 4A, Table 5). The STIP variants adopted α-helical forms in 50% (v/v) trifluoroethanol (TFE), though unlike the full-length S. auricularis δ-toxin, they were unstructured in water. […] Specifically, peptides characterized by the greatest and least α-helical content in TFE had MICs above the highest tested threshold.
Circular dichroism spectroscopy. Peptides were dissolved in water at concentrations between 0.3 and 0.5 mg/mL. CD spectra were recorded on an Applied Photophysics Chirascan Plus CD spectrophotometer at room temperature in a 0.1 cm path-length quartz cuvette. Spectra were recorded from 180 to 260 nm.

C. albicans MYA-2876 = test: MIC, YPD broth; format: cell-based, Candida albicans; conditions: Table 8
Summary of the method: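 Yeast cells were diluted in YPD broth, and 180 μl aliquots were mixed with 20 μl of peptide from 2-fold serial dilutions in flat-bottom 96-well microtitre plates. Wells receiving 20 μl sterile water served as controls. After standing incubation overnight at 37° C, the MIC was taken as the lowest peptide concentration with no visible microbial growth.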

[2] = test system: Candida haemulonii AR 395; test: MIC, YPD broth, CDC and FDA AR Candida isolate panel; format: cell-based; conditions: Table 9 below the line: only 200 or 100 μg/mL tested; values reported as 100 are ≤100 μg/mL
Summary of the method: (§1)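 Peptides of 95% purity were tested as 2-fold dilution series against yeast diluted to an optical density of […]. Cultures stood overnight at 37° C, with sterile water as control.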

Candida krusei AR 397 = test: as above; format: cell-based
Summary of the method: as §1

[3] = test system: Candida lusitaniae AR 398; test: as above; format: cell-based
Summary of the method: as §1

[4] = test system: Saccharomyces cerevisiae AR 399; test: as above; format: cell-based
Summary of the method: as §1

[5] = test system: Candida duobushaemulonii AR 391; test: as above; format: cell-based
Summary of the method: as §1

[6] = test system: Saccharomyces cerevisiae AR 400; test: as above; format: cell-based
Summary of the method: as §1

Kodamae ohmeri AR 396 = test: as above; format: cell-based
Summary of the method: as §1

[7] = test system: Candida duobushaemulonii AR 392; test: as above; format: cell-based
Summary of the method: as §1

[8] = test system: Candida duobushaemulonii AR 394; test: as above; format: cell-based
Summary of the method: as §1

[9] = test system: Candida haemulonii AR 393; test: as above; format: cell-based; conditions: Table 9 below the line: only 200 or 100 μg/mL tested; values reported as 100 are ≤100 μg/mL
Summary of the method: as §1

[10] = test system: S. aureus ATCC BAA-1683 (MRSA SCCmec type IV); test: MIC, broth dilution; format: cell-based, Staphylococcus aureus; conditions: Table 5; STIP3 variants, highest concentration 100 μg/mL
Summary of the method: (§2)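 Peptides (95% purity) were serially diluted 2-fold and mixed with bacteria diluted to OD 6×10^−4 in cation-adjusted Mueller Hinton broth. Standing cultures were incubated overnight at 37° C. MIC was the lowest peptide concentration with no observed growth.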

[11] = test system: S. aureus ATCC BAA-41 (MRSA SCCmec type II); test: MIC, broth dilution; format: cell-based, Staphylococcus aureus; conditions: Table 5; STIP3 variants, highest concentration 100 μg/mL
Summary of the method: as §2

[12] = test system: S. aureus ATCC BAA-2313 (MRSA SCCmec type XI); test: MIC, broth dilution; format: cell-based, Staphylococcus aureus; conditions: Table 5; STIP3 variants, highest concentration 100 μg/mL
Summary of the method: as §2

[13] = test system: S. aureus ATCC 33592 (MRSA SCCmec type III); test: MIC, broth dilution; format: cell-based, Staphylococcus aureus; conditions: Table 5; STIP3 variants, highest concentration 100 μg/mL
Summary of the method: as §2

[14] = test system: S. aureus ATCC BAA-2094 (MRSA SCCmec type V); test: MIC, broth dilution; format: cell-based, Staphylococcus aureus; conditions: Table 5; STIP3 variants, highest concentration 100 μg/mL
Summary of the method: as §2

[15] = test system: S. aureus ATCC BAA-42 (MRSA SCCmec type VI); test: MIC, broth dilution; format: cell-based, Staphylococcus aureus; conditions: Table 5; STIP3 variants, highest concentration 100 μg/mL
Summary of the method: as §2

S. aureus ATCC 29213 = test: MIC, broth dilution; format: cell-based, Staphylococcus aureus; conditions: Table 5; STIP3 variants, highest concentration 100 μg/mL
Summary of the method: as §2

[16] = test system: S. aureus ATCC BAA-44 (MRSA SCCmec type I); test: MIC, broth dilution; format: cell-based, Staphylococcus aureus; conditions: Table 5; STIP3 variants, highest concentration 100 μg/mL
Summary of the method: as §2

[17] = test system: Mannheimia haemolytica ATCC 33393; test: MIC, broth dilution; format: cell-based; conditions: Table 11; highest concentration 25 μg/mL
Summary of the method: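 Read-out is the lowest peptide concentration showing no growth after an overnight standing culture at 37 °C. Two-fold serial dilutions of 95%-pure peptide were tested against M. haemolytica ATCC 33393 at OD 6×10^−4 in cation-adjusted MH broth.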

C. albicans Y537 = test: MIC, YPD broth; format: cell-based, Candida albicans; conditions: Table 8
[18] = Table 9 below the line: only 200 or 100 μg/mL tested, values reported as 100 are ≤100 μg/mL
[19] = Table 9 top part: titrations from 1.56 to 100 μg/mL

Sequence	α helicity (%) [1] [%]	MIC C. albicans MYA-2876 (C. albicans MYA-2876) [µg/mL]	MIC (μg/mL) Candida haemulonii AR 395 [2]	MIC (μg/mL) Candida krusei AR 397 (Candida krusei AR 397; [18]) [µg/mL]	MIC (μg/mL) Candida lusitaniae AR 398 [3, 18] [µg/mL]	MIC (μg/mL) Saccharomyces cerevisiae AR 399 [4, 18] [µg/mL]	MIC (μg/mL) Candida duobushaemulonii AR 391 [5, 18]	MIC (μg/mL) Saccharomyces cerevisiae AR 400 [6, 18] [µg/mL]	MIC (μg/mL) Kodamae ohmeri AR 396 (Kodamae ohmeri AR 396; [18]) [µg/mL]	MIC (μg/mL) Candida duobushaemulonii AR 392 [7, 18]	MIC (μg/mL) Candida duobushaemulonii AR 394 [8, 18]	MIC (μg/mL) Candida haemulonii AR 393 [9]	MIC S. aureus ATCC BAA 1683 (IV) [10]	MIC S. aureus ATCC BAA 41 (II) [11] [µg/mL]	MIC S. aureus ATCC BAA 2313 (XI) [12] [µg/mL]	MIC S. aureus ATCC 33592 (III) [13] [µg/mL]	MIC S. aureus ATCC BAA 2094 (V) [14] [µg/mL]	MIC S. aureus ATCC BAA 42 (VI) [15] [µg/mL]	MIC S. aureus ATCC 29213 (S. aureus ATCC 29213) [µg/mL]	MIC S. aureus ATCC BAA 44 (I) [16] [µg/mL]	further results
TVKGLVKWILATVKKFA [STIP3-16, TVKGLVKWILATVKKFA]	45	12.5	> (values below the line were determined using two concentrations of peptide 200 or 100 μg/mL)	≤ 100	≤ 100	≤ 100	> (values below the line were determined using two concentrations of peptide 200 or 100 μg/mL)	≤ 100	≤ 100	> (values below the line were determined using two concentrations of peptide 200 or 100 μg/mL)	> (values below the line were determined using two concentrations of peptide 200 or 100 μg/mL)	> (values below the line were determined using two concentrations of peptide 200 or 100 μg/mL)	> (no inhibition was observed at the highest concentration of peptide tested: 100 μg/mL for the STIP3 variants)	50	100	50	100	50	100	100	MIC (μg/mL) M. haemolytica [17]: 6.25 µg/mL
TVGGLVKWILKTVKKFA [STIP3-3, TVGGLVKWILKTVKKFA]		25	> (values below the line were determined using two concentrations of peptide 200 or 100 μg/mL)	≤ 100	≤ 100	≤ 100	≤ 100 µg/mL	≤ 100	≤ 100	> (values below the line were determined using two concentrations of peptide 200 or 100 μg/mL)	> (values below the line were determined using two concentrations of peptide 200 or 100 μg/mL)	> (values below the line were determined using two concentrations of peptide 200 or 100 μg/mL)	50 µg/mL	25	50	25	25	50	25	25	MIC C. albicans Y537 (C. albicans Y537): 50 µg/mL; MIC (μg/mL) M. haemolytica [17]: 12.5 µg/mL
TVKGLVKWILNVVKKFA [STIP3-14, TVKGLVKWILNVVKKFA]	64	12.5											25 µg/mL	25	12.5	12.5	50	25	25	25	MIC C. albicans Y537 (C. albicans Y537): 50 µg/mL; MIC (μg/mL) Candida krusei AR 397 (Candida krusei AR 397; [19]): 12.5 µg/mL; MIC (μg/mL) Candida lusitaniae AR 398 [3, 19]: 6.25 µg/mL; MIC (μg/mL) Saccharomyces cerevisiae AR 399 [4, 19]: 25 µg/mL; MIC (μg/mL) Candida duobushaemulonii AR 391 [5, 19]: 50 µg/mL; MIC (μg/mL) Saccharomyces cerevisiae AR 400 [6, 19]: 6.25 µg/mL; MIC (μg/mL) Kodamae ohmeri AR 396 (Kodamae ohmeri AR 396; [19]): 25 µg/mL; MIC (μg/mL) Candida duobushaemulonii AR 392 [7, 19]: 50 µg/mL; MIC (μg/mL) Candida duobushaemulonii AR 394 [8, 19]: 100 µg/mL
